Results: paper PMC11124822, “Discovery and Anticancer Screening of Novel Oxindole-Based Derivative Bearing Pyridyl Group as Potent and Selective Dual FLT3/CDK2 Kinase Inhibitor” (Pharmaceuticals, 2024)

Tests used:
[1] = tested on: NCI/ADR-RES; assay: NCI-60 antiproliferative screen (SRB); type: cell-based, human; conditions: Homo sapiens; 10 µM single dose, 48 h; NCI/ADR-RES (Ovarian); read-out: Growth inhibition (%)
[2] = tested on: OVCAR-8; assay: NCI-60 antiproliferative screen (SRB); type: cell-based, human; conditions: Homo sapiens; 10 µM single dose, 48 h; OVCAR-8 (Ovarian); read-out: Growth inhibition (%)
[3] = tested on: OVCAR-4; assay: NCI-60 antiproliferative screen (SRB); conditions: Homo sapiens, OVCAR-4, 48 h, read-out: Growth inhibition (%)
Procedure: Anticancer activity was tested against 60 cancer cell lines (NCI-60) after 48h treatments with a single dosage of 10 μM of compounds by using sulforhodamine B assay [39] on the traditional 96-well platform. […] The human cancer cell lines of the NCI-60 panel are grown in RPMI 1640 medium supplemented with 5% FBS (fetal bovine serum) and 2 mM L-glutamine. […] For further analysis of promising compounds, five dose screens were performed against the NCI-60 panel. Drug treatments are performed in 5 doses using 10-fold or ½ log dose dilutions.

[4] = tested on: NCI-H23; assay: NCI-60 antiproliferative screen (SRB); type: cell-based, human; conditions: Homo sapiens; 10 µM single dose, 48 h; NCI-H23 (NSCLC); read-out: Growth inhibition (%)
[5] = tested on: UACC-62; assay: NCI-60 antiproliferative screen (SRB); type: cell-based, human; conditions: Homo sapiens; 10 µM single dose, 48 h; UACC-62 (Melanoma); read-out: Growth inhibition (%)
[6] = tested on: HOP-92; assay: NCI-60 antiproliferative screen (SRB); type: cell-based, human; conditions: Homo sapiens; 10 µM single dose, 48 h; HOP-92 (NSCLC); read-out: Growth inhibition (%)
[7] = tested on: SK-OV-3; assay: NCI-60 antiproliferative screen (SRB); type: cell-based, human; conditions: Homo sapiens; 10 µM single dose, 48 h; SK-OV-3 (Ovarian); read-out: Growth inhibition (%)
[8] = tested on: SK-MEL-5; assay: NCI-60 antiproliferative screen (SRB); type: cell-based, human; conditions: Homo sapiens; 10 µM single dose, 48 h; SK-MEL-5 (Melanoma); read-out: Growth inhibition (%)
[9] = tested on: NCI-H322M; assay: NCI-60 antiproliferative screen (SRB); type: cell-based, human; conditions: Homo sapiens; 10 µM single dose, 48 h; NCI-H322M (NSCLC); read-out: Growth inhibition (%)
[10] = tested on: HCT-15; assay: NCI-60 antiproliferative screen (SRB); type: cell-based, human; conditions: Homo sapiens; 10 µM single dose, 48 h; HCT-15 (Colon); read-out: Growth inhibition (%)
[11] = tested on: CAKI-1; assay: NCI-60 antiproliferative screen (SRB); type: cell-based, human; conditions: Homo sapiens; 10 µM single dose, 48 h; CAKI-1 (Renal); read-out: Growth inhibition (%)
[12] = tested on: SR; assay: NCI-60 antiproliferative screen (SRB); conditions: Homo sapiens, 48 h, read-out: Growth inhibition (%)
[13] = tested on: SNB-19; assay: NCI-60 antiproliferative screen (SRB); type: cell-based, human; conditions: Homo sapiens; 10 µM single dose, 48 h; SNB-19 (CNS); read-out: Growth inhibition (%)
[14] = tested on: DU-145; assay: NCI-60 antiproliferative screen (SRB); type: cell-based, human; conditions: Homo sapiens; 10 µM single dose, 48 h; DU-145 (Prostate); read-out: Growth inhibition (%)
[15] = tested on: M14; assay: NCI-60 antiproliferative screen (SRB); type: cell-based, human; conditions: Homo sapiens; 10 µM single dose, 48 h; M14 (Melanoma); read-out: Growth inhibition (%)
[16] = tested on: A549/ATCC; assay: NCI-60 antiproliferative screen (SRB); type: cell-based, human; conditions: Homo sapiens; 10 µM single dose, 48 h; A549/ATCC (NSCLC); read-out: Growth inhibition (%)
[17] = tested on: SF-539; assay: NCI-60 antiproliferative screen (SRB); type: cell-based, human; conditions: Homo sapiens; 10 µM single dose, 48 h; SF-539 (CNS); read-out: Growth inhibition (%)
[18] = tested on: SW-620; assay: NCI-60 antiproliferative screen (SRB); type: cell-based, human; conditions: Homo sapiens; 10 µM single dose, 48 h; SW-620 (Colon); read-out: Growth inhibition (%)
[19] = tested on: MDA-MB-435; assay: NCI-60 antiproliferative screen (SRB); type: cell-based, human; conditions: Homo sapiens; 10 µM single dose, 48 h; MDA-MB-435 (Melanoma); read-out: Growth inhibition (%)
[20] = tested on: BT-549; assay: NCI-60 antiproliferative screen (SRB); type: cell-based, human; conditions: Homo sapiens; 10 µM single dose, 48 h; BT-549 (Breast); read-out: Growth inhibition (%)
[21] = tested on: UACC-257; assay: NCI-60 antiproliferative screen (SRB); type: cell-based, human; conditions: Homo sapiens; 10 µM single dose, 48 h; UACC-257 (Melanoma); read-out: Growth inhibition (%)
[22] = tested on: NCI-H460; assay: NCI-60 antiproliferative screen (SRB); type: cell-based, human; conditions: Homo sapiens; 10 µM single dose, 48 h; NCI-H460 (NSCLC); read-out: Growth inhibition (%)
[23] = tested on: LOX IMVI; assay: NCI-60 antiproliferative screen (SRB); type: cell-based, human; conditions: Homo sapiens; 10 µM single dose, 48 h; LOX IMVI (Melanoma); read-out: Growth inhibition (%)
[24] = tested on: NCI-60 human cancer cell lines; assay: NCI-60 screen, full panel summary; type: cell-based; conditions: 10 µM single dose; for Mean Growth Percent: all NCI-60 cell lines
Procedure: In a comprehensive test, compounds were assayed at a single dose concentration (10^−5 M) in the full panel of NCI-60 cancer cell lines.

[25] = tested on: HT29; assay: NCI-60 antiproliferative screen (SRB); type: cell-based, human; conditions: Homo sapiens, HT-29; 10 µM single dose, 48 h; HT29 (Colon); read-out: Growth inhibition (%)
[26] = tested on: ACHN; assay: NCI-60 antiproliferative screen (SRB); type: cell-based, human; conditions: Homo sapiens; 10 µM single dose, 48 h; ACHN (Renal); read-out: Growth inhibition (%)
[27] = tested on: HOP-62; assay: NCI-60 antiproliferative screen (SRB); type: cell-based, human; conditions: Homo sapiens; 10 µM single dose, 48 h; HOP-62 (NSCLC); read-out: Growth inhibition (%)
[28] = tested on: OVCAR-3; assay: NCI-60 antiproliferative screen (SRB); type: cell-based, human; conditions: Homo sapiens; 10 µM single dose, 48 h; OVCAR-3 (Ovarian); read-out: Growth inhibition (%)
[29] = tested on: A498; assay: NCI-60 antiproliferative screen (SRB); type: cell-based, human; conditions: Homo sapiens; 10 µM single dose, 48 h; A498 (Renal); read-out: Growth inhibition (%)

| Structure (SMILES) | inhibition at 10 µM [1] [%] | inhibition at 10 µM [2] [%] | inhibition at 10 µM [3] [%] | inhibition at 10 µM [4] [%] | inhibition at 10 µM [5] [%] | inhibition at 10 µM [6] [%] | inhibition at 10 µM [7] [%] | inhibition at 10 µM [8] [%] | inhibition at 10 µM [9] [%] | inhibition at 10 µM [10] [%] | inhibition at 10 µM [11] [%] | inhibition at 10 µM [12] [%] | inhibition at 10 µM [13] [%] | inhibition at 10 µM [14] [%] | inhibition at 10 µM [15] [%] | inhibition at 10 µM [16] [%] | inhibition at 10 µM [17] [%] | melting point [°C] | inhibition at 10 µM [18] [%] | inhibition at 10 µM [19] [%] | other results |
| --- | --- | --- | --- | --- | --- | --- | --- | --- | --- | --- | --- | --- | --- | --- | --- | --- | --- | --- | --- | --- | --- |
| O=C1Nc2ccc(F)cc2C1=Cc1ccc(OCc2ccccc2)cc1 (mixture of isomers) [Compound 5b, (E/Z)-3-[4-(Benzyloxy)benzylidene]-5-fluoroindolin-2-one] | 0.01 | -0.84 | 0.82 | 1.73 | 4.38 | 4.77 | 0.16 | -0.59 | 2.81 | 3.51 | 8.23 | -0.14 | 1.26 | 0.4 | 3.39 | 3.9 | 4.67 | 244 to 248 | -2.34 | 5.59 | inhibition at 10 µM [20]: -6.03%; inhibition at 10 µM [21]: 2.53%; inhibition at 10 µM [22]: -0.94%; inhibition at 10 µM [23]: -6.24%; Positive Cytostatic Effect (cell lines with percent growth from 0 to 50 / total number of cell lines) [24]: 0/57; Positive Cytotoxic Effect (cell lines with percent growth of <0 / total number of cell lines) [24]: 0/57; Sensitive/Total Cell Lines [24]: 0/57; antiproliferative activity (in words) [24]: weak antiproliferative activity; Mean Growth Percent [24]: 1.62; inhibition at 10 µM ([24]; Homo sapiens, read-out: Range of Growth Inhibition on All Cells): -10.8 to 9.53%; inhibition at 10 µM [25]: 2.38%; inhibition at 10 µM [26]: -7.3%; inhibition at 10 µM [27]: -1.2% |
| O=C1Nc2ccc(Cl)cc2C1=Cc1ccc(OCc2ccncc2)cc1 (mixture of isomers) [Compound 5o, (E/Z)-5-Chloro-3-[4-(pyridin-4-ylmethoxy)benzylidene] indolin-2-one] | 67.6 | 61.5 | 47.3 | 55.3 | 37.6 | 16.3 | 11.4 | 62.6 | 40.6 | 79.1 | 38.7 | 88.9 | 73.8 | 49.3 | 33 | 39.9 | 44 | 238 to 240 | 48.3 | 58.7 | inhibition at 10 µM [28]: 67.4%; inhibition at 10 µM [29]: 1.01%; inhibition at 10 µM [21]: 23.7%; inhibition at 10 µM [22]: 57.8%; inhibition at 10 µM [23]: 58.7%; Positive Cytostatic Effect (cell lines with percent growth from 0 to 50 / total number of cell lines) [24]: 28/59; Positive Cytotoxic Effect (cell lines with percent growth of <0 / total number of cell lines) [24]: 0/59; Sensitive/Total Cell Lines [24]: 28/59; The Most Sensitive Cell Line [24]: MCF7; number of cell lines with cytostatic effects [24]: 28; Mean Growth Percent [24]: 47.19; inhibition at 10 µM [25]: 39.7%; inhibition at 10 µM [26]: 70.2%; inhibition at 10 µM [27]: 19.7% |
| O=C1Nc2ccccc2C1=Cc1ccc(OCc2ccncc2)cc1 (mixture of isomers) [Compound 5m, (E/Z)-3-[4-(Pyridin-4-ylmethoxy)benzylidene] indolin-2-one] | 61.8 | 35 | 42.7 | 49.8 | 31.1 | 40.2 | 9.38 | 90 | 20.9 | 62.3 | 45.6 | 73.3 | 43.1 | 33.7 | 23.7 | 34.5 | 24.9 | 238 to 240 | 22 | 49.6 | inhibition at 10 µM [28]: 21.5%; inhibition at 10 µM [29]: 2.17%; inhibition at 10 µM [21]: 35.8%; inhibition at 10 µM [22]: 40.5%; inhibition at 10 µM [23]: 41.4%; Positive Cytostatic Effect (cell lines with percent growth from 0 to 50 / total number of cell lines) [24]: 14/59; Positive Cytotoxic Effect (cell lines with percent growth of <0 / total number of cell lines) [24]: 0/59; Sensitive/Total Cell Lines [24]: 14/59; The Most Sensitive Cell Line [24]: MDA-MB-468; number of cell lines with cytostatic effects [24]: 14; Mean Growth Percent [24]: 38.04; inhibition at 10 µM [25]: 11.2%; inhibition at 10 µM [26]: 24.1%; inhibition at 10 µM [27]: 23% |
